Results taken from the kinase profiling compilation of Christmann-Franck et al. (2016).

Experiments:
Assay in all cases: KINOMEscan competition binding
Conditions in all cases: compound 10.0 µM
ABL1 (human) = ABL1 (human) (UniProt P00519)
ANKK1 (human) = ANKK1 (human) (UniProt Q8NFD2)
BMPR1A (human) = BMPR1A (human) (UniProt P36894)
BTK (human) = BTK (human) (UniProt Q06187)
CAMK4 (human) = CAMK4 (human) (UniProt Q16566)
CDK19 (human) = CDK19 (human) (UniProt Q9BWU1)
CDK4 CCND1 (human) = CDK4 CCND1 (human) (UniProt P11802+P24385)
CSNK1G3 (human) = CSNK1G3 (human) (UniProt Q9Y6M4)
CaMK1 (human) = CaMK1 (human) (UniProt Q14012)
Chain of CaMK1 (human) (Q14012 whole entry, looked up): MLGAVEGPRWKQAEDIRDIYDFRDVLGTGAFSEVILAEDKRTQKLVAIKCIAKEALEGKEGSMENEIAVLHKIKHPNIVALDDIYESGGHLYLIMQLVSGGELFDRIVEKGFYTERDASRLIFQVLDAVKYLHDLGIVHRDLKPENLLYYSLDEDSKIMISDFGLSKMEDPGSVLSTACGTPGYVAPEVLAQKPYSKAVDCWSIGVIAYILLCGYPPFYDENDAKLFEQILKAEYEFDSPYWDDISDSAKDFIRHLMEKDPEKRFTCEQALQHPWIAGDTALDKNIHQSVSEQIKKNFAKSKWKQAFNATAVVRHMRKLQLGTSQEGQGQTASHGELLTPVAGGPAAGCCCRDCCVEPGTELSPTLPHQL

[1] = tested on: EGFR (human), P00533 [747-751 del / S ins]
[2] = tested on: EGFR (human), P00533 [T790M]
EIF2AK2 (human) = EIF2AK2 (human) (UniProt P19525)
EPHB4 (human) = EPHB4 (human) (UniProt P54760)
ERN1 (human) = ERN1 (human) (UniProt O75460)
GSK3B (human) = GSK3B (human) (UniProt P49841)
HIPK2 (human) = HIPK2 (human) (UniProt Q9H2X6)
KDR (human) = KDR (human) (UniProt P35968)
MAP4K3 (human) = MAP4K3 (human) (UniProt Q8IVH8)
MAPK15 (human) = MAPK15 (human) (UniProt Q8TD08)
MAPK4 (human) = MAPK4 (human) (UniProt P31152)
Chain of MAPK4 (human) (P31152 whole entry, looked up): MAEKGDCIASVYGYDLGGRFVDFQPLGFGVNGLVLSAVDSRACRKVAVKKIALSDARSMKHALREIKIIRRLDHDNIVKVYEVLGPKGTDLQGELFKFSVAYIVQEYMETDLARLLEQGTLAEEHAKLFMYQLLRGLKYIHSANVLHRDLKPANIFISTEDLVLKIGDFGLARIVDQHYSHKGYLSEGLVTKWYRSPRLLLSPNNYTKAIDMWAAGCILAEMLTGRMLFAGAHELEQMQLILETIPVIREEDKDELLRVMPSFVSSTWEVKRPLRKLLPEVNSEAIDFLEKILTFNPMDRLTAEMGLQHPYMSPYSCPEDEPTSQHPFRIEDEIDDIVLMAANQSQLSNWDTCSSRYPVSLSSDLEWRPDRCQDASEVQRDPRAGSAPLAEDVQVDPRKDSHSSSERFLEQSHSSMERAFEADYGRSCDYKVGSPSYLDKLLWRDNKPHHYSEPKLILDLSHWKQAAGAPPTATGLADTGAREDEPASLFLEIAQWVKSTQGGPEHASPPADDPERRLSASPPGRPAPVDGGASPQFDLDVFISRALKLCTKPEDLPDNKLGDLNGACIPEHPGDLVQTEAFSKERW

MYLK2 (human) = MYLK2 (human) (UniProt Q9H1R3)
MYLK3 (human) = MYLK3 (human) (UniProt Q32MK0)
MYLK4 (human) = MYLK4 (human) (UniProt Q86YV6)
Chain of MYLK4 (human) (Q86YV6 whole entry, looked up): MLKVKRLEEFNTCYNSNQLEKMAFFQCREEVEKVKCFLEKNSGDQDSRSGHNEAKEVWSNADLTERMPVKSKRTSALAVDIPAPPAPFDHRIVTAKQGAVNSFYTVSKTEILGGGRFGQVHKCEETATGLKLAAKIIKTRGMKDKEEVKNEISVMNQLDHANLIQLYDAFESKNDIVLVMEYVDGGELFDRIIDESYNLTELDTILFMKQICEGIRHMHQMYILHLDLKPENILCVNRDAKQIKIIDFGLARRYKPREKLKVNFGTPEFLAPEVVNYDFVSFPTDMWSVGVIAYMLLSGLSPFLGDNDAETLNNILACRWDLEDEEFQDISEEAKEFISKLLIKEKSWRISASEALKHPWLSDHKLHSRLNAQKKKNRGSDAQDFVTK

NEK2 (human) = NEK2 (human) (UniProt P51955)
NEK5 (human) = NEK5 (human) (UniProt Q6P3R8)
NIM1 (human) = NIM1 (human) (UniProt Q8IY84)
OXSR1 (human) = OXSR1 (human) (UniProt O95747)
PDGFRA (human) = PDGFRA (human) (UniProt P16234)
PIP4K2B (human) = PIP4K2B (human) (UniProt P78356)
Chain of PIP4K2B (human) (P78356 whole entry, looked up): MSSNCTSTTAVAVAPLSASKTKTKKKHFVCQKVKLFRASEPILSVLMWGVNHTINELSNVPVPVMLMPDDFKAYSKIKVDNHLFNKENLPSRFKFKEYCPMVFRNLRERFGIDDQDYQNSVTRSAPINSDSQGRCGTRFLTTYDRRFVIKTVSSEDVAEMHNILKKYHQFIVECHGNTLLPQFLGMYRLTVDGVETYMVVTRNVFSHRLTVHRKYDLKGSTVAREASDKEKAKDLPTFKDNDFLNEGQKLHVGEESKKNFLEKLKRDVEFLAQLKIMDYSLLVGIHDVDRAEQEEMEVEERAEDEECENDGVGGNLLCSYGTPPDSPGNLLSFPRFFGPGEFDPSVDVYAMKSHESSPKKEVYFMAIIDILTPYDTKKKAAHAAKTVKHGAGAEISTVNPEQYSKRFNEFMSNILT

PRKAA1 (human) = PRKAA1 (human) (UniProt Q13131)
RPS6KA2 KD1 (human) = RPS6KA2 KD1 (human) (UniProt Q15349)
Chain of RPS6KA2 KD1 (human) (Q15349 whole entry, looked up): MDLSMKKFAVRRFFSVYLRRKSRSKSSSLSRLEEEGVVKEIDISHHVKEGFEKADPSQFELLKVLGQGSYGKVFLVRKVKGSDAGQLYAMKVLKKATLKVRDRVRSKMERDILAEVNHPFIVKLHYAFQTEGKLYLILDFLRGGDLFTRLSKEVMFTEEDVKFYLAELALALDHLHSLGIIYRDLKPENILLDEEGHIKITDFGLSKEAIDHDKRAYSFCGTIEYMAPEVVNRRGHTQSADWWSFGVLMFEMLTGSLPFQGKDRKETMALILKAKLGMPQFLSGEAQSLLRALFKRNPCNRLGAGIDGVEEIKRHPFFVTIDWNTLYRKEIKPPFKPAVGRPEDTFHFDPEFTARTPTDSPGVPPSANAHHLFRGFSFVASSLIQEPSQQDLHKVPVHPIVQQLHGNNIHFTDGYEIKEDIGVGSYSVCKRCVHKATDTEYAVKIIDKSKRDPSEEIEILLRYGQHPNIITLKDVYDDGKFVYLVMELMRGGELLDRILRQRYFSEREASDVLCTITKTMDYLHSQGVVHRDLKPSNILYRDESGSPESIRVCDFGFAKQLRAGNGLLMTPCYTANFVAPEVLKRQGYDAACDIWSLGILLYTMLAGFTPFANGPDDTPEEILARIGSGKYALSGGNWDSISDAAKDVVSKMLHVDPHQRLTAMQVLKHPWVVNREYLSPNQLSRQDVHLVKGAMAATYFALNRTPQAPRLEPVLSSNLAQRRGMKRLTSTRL

RPS6KA2 KD2 (human) = RPS6KA2 KD2 (human) (UniProt Q15349)
Chain of RPS6KA2 KD2 (human) (Q15349 whole entry, looked up): as above

TGFBR1 (human) = TGFBR1 (human) (UniProt P36897)
Chain of TGFBR1 (human) (P36897 whole entry, looked up): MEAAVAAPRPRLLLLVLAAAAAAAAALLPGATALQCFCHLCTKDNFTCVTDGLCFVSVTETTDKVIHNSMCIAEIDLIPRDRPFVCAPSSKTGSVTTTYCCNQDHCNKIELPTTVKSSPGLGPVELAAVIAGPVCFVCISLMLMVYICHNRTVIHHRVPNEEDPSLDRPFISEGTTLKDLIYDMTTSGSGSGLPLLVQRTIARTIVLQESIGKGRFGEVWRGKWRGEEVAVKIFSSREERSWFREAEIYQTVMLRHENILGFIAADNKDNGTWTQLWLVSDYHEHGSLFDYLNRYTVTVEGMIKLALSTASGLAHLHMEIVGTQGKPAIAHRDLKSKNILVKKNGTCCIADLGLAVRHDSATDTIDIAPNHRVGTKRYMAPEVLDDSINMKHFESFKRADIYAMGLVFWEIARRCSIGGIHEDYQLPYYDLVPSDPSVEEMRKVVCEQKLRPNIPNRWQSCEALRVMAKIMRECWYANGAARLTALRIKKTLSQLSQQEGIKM

TXK (human) = TXK (human) (UniProt P42681)
WEE1 (human) = WEE1 (human) (UniProt P30291)
[3] = tested on: ABL1 (human), P00519 [H396P]
FLT3 (human) = FLT3 (human) (UniProt P36888)
Chain of FLT3 (human) (P36888 whole entry, looked up): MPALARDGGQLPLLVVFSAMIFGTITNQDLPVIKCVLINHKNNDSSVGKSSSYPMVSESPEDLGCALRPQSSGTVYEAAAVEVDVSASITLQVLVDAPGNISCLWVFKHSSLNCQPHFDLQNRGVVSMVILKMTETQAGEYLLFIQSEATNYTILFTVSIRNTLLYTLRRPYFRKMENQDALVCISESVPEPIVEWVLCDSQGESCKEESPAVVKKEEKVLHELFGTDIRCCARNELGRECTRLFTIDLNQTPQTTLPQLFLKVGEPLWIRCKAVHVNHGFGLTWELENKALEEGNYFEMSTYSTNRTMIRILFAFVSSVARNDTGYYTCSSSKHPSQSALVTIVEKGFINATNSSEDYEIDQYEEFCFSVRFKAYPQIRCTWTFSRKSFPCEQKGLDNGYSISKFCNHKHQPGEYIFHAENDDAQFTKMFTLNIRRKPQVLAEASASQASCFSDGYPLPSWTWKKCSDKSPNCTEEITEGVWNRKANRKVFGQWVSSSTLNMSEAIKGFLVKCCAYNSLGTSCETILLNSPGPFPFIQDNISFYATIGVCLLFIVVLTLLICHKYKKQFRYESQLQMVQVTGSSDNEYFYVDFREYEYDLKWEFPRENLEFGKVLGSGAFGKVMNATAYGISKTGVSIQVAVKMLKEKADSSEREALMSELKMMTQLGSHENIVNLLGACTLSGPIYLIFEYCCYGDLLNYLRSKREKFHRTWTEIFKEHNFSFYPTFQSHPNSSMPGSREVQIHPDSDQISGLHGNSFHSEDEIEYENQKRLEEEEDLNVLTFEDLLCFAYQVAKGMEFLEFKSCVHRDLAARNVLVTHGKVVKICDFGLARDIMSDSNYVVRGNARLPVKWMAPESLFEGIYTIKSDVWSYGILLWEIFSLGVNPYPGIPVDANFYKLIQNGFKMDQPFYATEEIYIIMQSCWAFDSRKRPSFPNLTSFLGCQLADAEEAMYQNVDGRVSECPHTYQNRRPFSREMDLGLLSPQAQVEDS

Chain of ANKK1 (human) (Q8NFD2 whole entry, looked up): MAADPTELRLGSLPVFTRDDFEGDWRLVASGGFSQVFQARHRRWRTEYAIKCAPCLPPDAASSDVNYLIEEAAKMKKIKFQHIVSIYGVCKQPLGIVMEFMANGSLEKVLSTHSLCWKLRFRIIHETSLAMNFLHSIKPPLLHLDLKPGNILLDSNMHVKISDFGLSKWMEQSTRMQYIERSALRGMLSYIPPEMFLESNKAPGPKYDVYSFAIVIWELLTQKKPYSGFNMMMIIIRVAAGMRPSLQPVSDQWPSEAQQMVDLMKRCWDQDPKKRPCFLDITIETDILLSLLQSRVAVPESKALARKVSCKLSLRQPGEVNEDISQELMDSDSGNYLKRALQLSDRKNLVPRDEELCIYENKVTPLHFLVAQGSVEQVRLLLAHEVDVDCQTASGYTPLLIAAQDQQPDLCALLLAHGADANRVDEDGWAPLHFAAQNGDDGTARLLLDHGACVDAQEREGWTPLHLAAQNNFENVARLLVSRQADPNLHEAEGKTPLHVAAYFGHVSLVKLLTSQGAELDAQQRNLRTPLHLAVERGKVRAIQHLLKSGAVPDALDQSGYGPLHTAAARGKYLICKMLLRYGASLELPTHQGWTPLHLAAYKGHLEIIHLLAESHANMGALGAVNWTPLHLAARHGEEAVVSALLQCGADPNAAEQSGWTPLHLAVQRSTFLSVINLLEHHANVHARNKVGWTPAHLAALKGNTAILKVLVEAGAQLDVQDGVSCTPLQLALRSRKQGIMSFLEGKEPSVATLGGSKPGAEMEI

## COc1cc2ncn(-c3cc(OCc4ccccc4C(F)(F)F)c(C(N)=O)s3)c2cc1OC
ABL1 (human)
  kinase still bound, per cent of control: 60%
ANKK1 (human)
  kinase still bound, per cent of control: 80%
BMPR1A (human)
  kinase still bound, per cent of control: 100%
BTK (human)
  kinase still bound, per cent of control: 86%
CAMK4 (human)
  kinase still bound, per cent of control: 100%
CDK19 (human)
  kinase still bound, per cent of control: 100%
CDK4 CCND1 (human)
  kinase still bound, per cent of control: 91%
CSNK1G3 (human)
  kinase still bound, per cent of control: 100%
CaMK1 (human)
  kinase still bound, per cent of control: 100%
[1]
  kinase still bound, per cent of control: 100%
[2]
  kinase still bound, per cent of control: 100%
EIF2AK2 (human)
  kinase still bound, per cent of control: 78%
EPHB4 (human)
  kinase still bound, per cent of control: 87%
ERN1 (human)
  kinase still bound, per cent of control: 75%
GSK3B (human)
  kinase still bound, per cent of control: 100%
HIPK2 (human)
  kinase still bound, per cent of control: 89%
KDR (human)
  kinase still bound, per cent of control: 76%
MAP4K3 (human)
  kinase still bound, per cent of control: 32%
MAPK15 (human)
  kinase still bound, per cent of control: 46%
MAPK4 (human)
  kinase still bound, per cent of control: 100%
MYLK2 (human)
  kinase still bound, per cent of control: 59%
MYLK3 (human)
  kinase still bound, per cent of control: 100%
MYLK4 (human)
  kinase still bound, per cent of control: 17%
NEK2 (human)
  kinase still bound, per cent of control: 14%
NEK5 (human)
  kinase still bound, per cent of control: 36%
NIM1 (human)
  kinase still bound, per cent of control: 88%
OXSR1 (human)
  kinase still bound, per cent of control: 100%
PDGFRA (human)
  kinase still bound, per cent of control: 58%
PIP4K2B (human)
  kinase still bound, per cent of control: 6.6%
PRKAA1 (human)
  kinase still bound, per cent of control: 68%
RPS6KA2 KD1 (human)
  kinase still bound, per cent of control: 61%
RPS6KA2 KD2 (human)
  kinase still bound, per cent of control: 74%
TGFBR1 (human)
  kinase still bound, per cent of control: 86%
TXK (human)
  kinase still bound, per cent of control: 72%
WEE1 (human)
  kinase still bound, per cent of control: 83%

## CS(=O)(=O)N1CCN(Cc2cc3nc(-c4cccc5[nH]ncc45)nc(N4CCOCC4)c3s2)CC1
ABL1 (human)
  kinase still bound, per cent of control: 100%
[3]
  kinase still bound, per cent of control: 100%
ANKK1 (human)
  kinase still bound, per cent of control: 100%
BMPR1A (human)
  kinase still bound, per cent of control: 100%
BTK (human)
  kinase still bound, per cent of control: 100%
CAMK4 (human)
  kinase still bound, per cent of control: 100%
CDK19 (human)
  kinase still bound, per cent of control: 100%
CSNK1G3 (human)
  kinase still bound, per cent of control: 100%
CaMK1 (human)
  kinase still bound, per cent of control: 100%
[1]
  kinase still bound, per cent of control: 100%
EIF2AK2 (human)
  kinase still bound, per cent of control: 100%
EPHB4 (human)
  kinase still bound, per cent of control: 100%
ERN1 (human)
  kinase still bound, per cent of control: 100%
FLT3 (human)
  kinase still bound, per cent of control: 100%
GSK3B (human)
  kinase still bound, per cent of control: 100%
HIPK2 (human)
  kinase still bound, per cent of control: 100%
KDR (human)
  kinase still bound, per cent of control: 100%
MAP4K3 (human)
  kinase still bound, per cent of control: 100%
MAPK15 (human)
  kinase still bound, per cent of control: 100%
MAPK4 (human)
  kinase still bound, per cent of control: 100%
MYLK2 (human)
  kinase still bound, per cent of control: 100%
MYLK3 (human)
  kinase still bound, per cent of control: 100%
MYLK4 (human)
  kinase still bound, per cent of control: 100%
NEK2 (human)
  kinase still bound, per cent of control: 100%
NEK5 (human)
  kinase still bound, per cent of control: 100%
NIM1 (human)
  kinase still bound, per cent of control: 100%
OXSR1 (human)
  kinase still bound, per cent of control: 100%
PDGFRA (human)
  kinase still bound, per cent of control: 0%
PIP4K2B (human)
  kinase still bound, per cent of control: 100%
PRKAA1 (human)
  kinase still bound, per cent of control: 100%
RPS6KA2 KD1 (human)
  kinase still bound, per cent of control: 100%
RPS6KA2 KD2 (human)
  kinase still bound, per cent of control: 100%
TGFBR1 (human)
  kinase still bound, per cent of control: 100%
TXK (human)
  kinase still bound, per cent of control: 100%
WEE1 (human)
  kinase still bound, per cent of control: 100%

## COc1cc(N2CCN(C)CC2)ccc1Nc1ncc2c(n1)N(C)c1ccccc1C(=O)N2C
ABL1 (human)
  kinase still bound, per cent of control: 100%
[3]
  kinase still bound, per cent of control: 100%
ANKK1 (human)
  kinase still bound, per cent of control: 100%
BMPR1A (human)
  kinase still bound, per cent of control: 100%
BTK (human)
  kinase still bound, per cent of control: 100%
CAMK4 (human)
  kinase still bound, per cent of control: 100%
CDK19 (human)
  kinase still bound, per cent of control: 100%
CSNK1G3 (human)
  kinase still bound, per cent of control: 100%
CaMK1 (human)
  kinase still bound, per cent of control: 100%
[1]
  kinase still bound, per cent of control: 100%
EIF2AK2 (human)
  kinase still bound, per cent of control: 100%
EPHB4 (human)
  kinase still bound, per cent of control: 100%
ERN1 (human)
  kinase still bound, per cent of control: 100%
FLT3 (human)
  kinase still bound, per cent of control: 100%
GSK3B (human)
  kinase still bound, per cent of control: 100%
HIPK2 (human)
  kinase still bound, per cent of control: 100%
KDR (human)
  kinase still bound, per cent of control: 100%
MAP4K3 (human)
  kinase still bound, per cent of control: 100%
MAPK15 (human)
  kinase still bound, per cent of control: 100%
MAPK4 (human)
  kinase still bound, per cent of control: 100%
MYLK2 (human)
  kinase still bound, per cent of control: 100%
MYLK3 (human)
  kinase still bound, per cent of control: 100%
MYLK4 (human)
  kinase still bound, per cent of control: 100%
NEK2 (human)
  kinase still bound, per cent of control: 100%
NEK5 (human)
  kinase still bound, per cent of control: 100%
NIM1 (human)
  kinase still bound, per cent of control: 100%
OXSR1 (human)
  kinase still bound, per cent of control: 100%
PDGFRA (human)
  kinase still bound, per cent of control: 100%
PIP4K2B (human)
  kinase still bound, per cent of control: 100%
PRKAA1 (human)
  kinase still bound, per cent of control: 100%
RPS6KA2 KD1 (human)
  kinase still bound, per cent of control: 100%
RPS6KA2 KD2 (human)
  kinase still bound, per cent of control: 15%
TGFBR1 (human)
  kinase still bound, per cent of control: 100%
TXK (human)
  kinase still bound, per cent of control: 100%
WEE1 (human)
  kinase still bound, per cent of control: 100%

## CCN(CC)CCCCNc1ncc2c(n1)N(C)C(=O)N(c1c(Cl)c(OC)cc(OC)c1Cl)C2
ABL1 (human)
  kinase still bound, per cent of control: 100%
[3]
  kinase still bound, per cent of control: 100%
ANKK1 (human)
  kinase still bound, per cent of control: 100%
BMPR1A (human)
  kinase still bound, per cent of control: 100%
BTK (human)
  kinase still bound, per cent of control: 100%
CAMK4 (human)
  kinase still bound, per cent of control: 100%
CDK19 (human)
  kinase still bound, per cent of control: 100%
CSNK1G3 (human)
  kinase still bound, per cent of control: 100%
CaMK1 (human)
  kinase still bound, per cent of control: 100%
[1]
  kinase still bound, per cent of control: 100%
EIF2AK2 (human)
  kinase still bound, per cent of control: 100%
EPHB4 (human)
  kinase still bound, per cent of control: 100%
ERN1 (human)
  kinase still bound, per cent of control: 100%
FLT3 (human)
  kinase still bound, per cent of control: 100%
GSK3B (human)
  kinase still bound, per cent of control: 100%
HIPK2 (human)
  kinase still bound, per cent of control: 100%
KDR (human)
  kinase still bound, per cent of control: 100%
MAP4K3 (human)
  kinase still bound, per cent of control: 100%
MAPK15 (human)
  kinase still bound, per cent of control: 100%
MAPK4 (human)
  kinase still bound, per cent of control: 100%
MYLK2 (human)
  kinase still bound, per cent of control: 100%
MYLK3 (human)
  kinase still bound, per cent of control: 100%
MYLK4 (human)
  kinase still bound, per cent of control: 100%
NEK2 (human)
  kinase still bound, per cent of control: 100%
NEK5 (human)
  kinase still bound, per cent of control: 100%
NIM1 (human)
  kinase still bound, per cent of control: 100%
OXSR1 (human)
  kinase still bound, per cent of control: 100%
PDGFRA (human)
  kinase still bound, per cent of control: 100%
PIP4K2B (human)
  kinase still bound, per cent of control: 100%
PRKAA1 (human)
  kinase still bound, per cent of control: 100%
RPS6KA2 KD1 (human)
  kinase still bound, per cent of control: 100%
RPS6KA2 KD2 (human)
  kinase still bound, per cent of control: 100%
TGFBR1 (human)
  kinase still bound, per cent of control: 100%
TXK (human)
  kinase still bound, per cent of control: 100%
WEE1 (human)
  kinase still bound, per cent of control: 100%
